Laboratory results taken from BindingDB's records for doi:10.1021/jm0611051 (Gsk, 2007).

Molecular target: Angiopoietin-1 receptor (Homo sapiens, UniProt Q02763)
Assay: Homogeneous Time-Resolved Fluorescence (HTRF) Enzyme Assay
Procedure: The assay uses purified GST-Tie-2 or GST-VEGFR2 interacting with biotinylated peptide substrates. HTRF is based on the proximity of europium cryptate (donor fluorophore)-labeled antiphosphotyrosine and streptavidin labeled with APC (allophycocyanin), which have been brought together by a binding reaction. […] The IC50 values for inhibitors were determined by a four-parameter sigmoidal curve fit.

Angiopoietin-1 receptor, sequence (Q02763 whole entry): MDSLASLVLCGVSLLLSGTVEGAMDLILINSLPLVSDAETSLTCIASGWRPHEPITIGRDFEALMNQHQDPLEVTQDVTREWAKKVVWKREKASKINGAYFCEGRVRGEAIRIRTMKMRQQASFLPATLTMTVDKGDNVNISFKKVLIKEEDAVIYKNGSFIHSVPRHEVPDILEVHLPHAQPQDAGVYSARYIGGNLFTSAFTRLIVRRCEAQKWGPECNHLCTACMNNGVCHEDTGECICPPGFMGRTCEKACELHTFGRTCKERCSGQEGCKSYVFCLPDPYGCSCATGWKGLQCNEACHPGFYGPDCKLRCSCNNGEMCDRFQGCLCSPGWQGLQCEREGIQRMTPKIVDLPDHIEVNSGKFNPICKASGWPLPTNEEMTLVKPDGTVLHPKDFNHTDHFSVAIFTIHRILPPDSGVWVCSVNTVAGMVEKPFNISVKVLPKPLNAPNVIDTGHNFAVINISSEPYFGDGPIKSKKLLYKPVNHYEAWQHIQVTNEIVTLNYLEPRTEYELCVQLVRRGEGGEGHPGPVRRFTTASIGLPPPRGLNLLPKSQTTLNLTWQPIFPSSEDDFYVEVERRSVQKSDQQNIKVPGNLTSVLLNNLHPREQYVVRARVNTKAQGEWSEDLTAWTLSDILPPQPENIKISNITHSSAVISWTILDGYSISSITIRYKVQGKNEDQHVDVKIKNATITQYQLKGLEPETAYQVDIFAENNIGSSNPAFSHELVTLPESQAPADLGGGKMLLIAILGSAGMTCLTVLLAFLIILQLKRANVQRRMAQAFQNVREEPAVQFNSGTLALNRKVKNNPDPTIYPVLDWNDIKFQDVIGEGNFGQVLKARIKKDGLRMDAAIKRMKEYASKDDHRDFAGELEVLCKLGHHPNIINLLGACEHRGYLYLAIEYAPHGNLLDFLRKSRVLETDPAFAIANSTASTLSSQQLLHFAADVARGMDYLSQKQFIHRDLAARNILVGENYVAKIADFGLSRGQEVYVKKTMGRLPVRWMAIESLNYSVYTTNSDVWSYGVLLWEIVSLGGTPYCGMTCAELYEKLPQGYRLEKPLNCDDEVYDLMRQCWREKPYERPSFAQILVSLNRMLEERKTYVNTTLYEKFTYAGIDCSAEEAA

`O=C(Nc1ccc(Oc2ccc3nc(NC(=O)c4ccccc4-n4cccc4)[nH]c3c2)cc1)Nc1cc(C(F)(F)F)ccc1F` [N-(6-(4-((2-Fluoro-5(trifluoromethyl)phenyl)aminocarbonylamino)phenoxy)-1H-benzimidazol-2-yl)-2-(1H-pyrrol-1-yl)benzamide] showed an IC50 of 1300 nM.
